Measurements: patent US20250066370A1, “BICYCLIC TRIAZINE DERIVATIVES FOR THE TREATMENT OF CANCER” (DEUTSCHES KREBSFORSCHUNGSZENTRUM, priority 2022, published 2025)

Legend:
[1] = test system: CAL-120-CDK12d-res; test: Proliferation assay CDK12 degrader resistant CAL-120; assay type: cell-based, human; settings: for IC50: Homo sapiens, 96 h, CDK12 degrader resistant CAL-120 cells, 4 days, median, read-out: Prolif-CAL-120-CDK12d-res, IC50 - [mol/l] (median); for Ratio (Prolif-CAL-120-CDK12d-res IC50 / Prolif-CAL-120 IC50): resistant versus parental CAL-120 cells
Source text: (§1) CDK12-degrader resistant cells were generated by propagation of CAL-120 human breast adenocarcinoma cells (DSMZ ACC-459) and MDA-MB-231 human breast cancer cells (ATCC HTB-26) in presence of increasing concentrations of the CDK12 degrader compound example 4 from WO 2021/116178. Initial concentrations of example 4 were 2.0E-08 M for CAL-120 cells and 4.6E-08 M for MDA-MB-231 cells, corresponding to ca. 2-fold the IC50 of inhibition of the cells in an proliferation assay. After the treated cells recovered and proliferated again the concentration of compound example 4 was increased to 3-fold IC50.
(§2) To determine the inhibitory effect of test compounds on proliferation of CAL-120-CDK12d-res, MDA-MB-231-CDK12d-res the cells were plated at a density of 4,000 cells/well in a 96-well multitier plate in 200 microL of their respective growth medium supplemented 10% fetal calf serum. After 24 hours, the cells of one plate (zero-point plate) were stained with crystal violet (see below), while the medium of the other plates was supplemented with the test substances in various concentrations (0 micromol/L, as well as in the range of 0.01-10 micromol/L; the final concentration of the solvent dimethyl sulfoxide was adjusted to 0.1%) using a Tecan HP D300 Digital Dispenser. The cells were incubated for 4 days in the presence of test substances. Cell proliferation was determined by staining the cells with crystal violet: the cells were fixed by adding 20 microL/measuring point of an 11% glutaric aldehyde solution for 15 minutes at room temperature. After three washing cycles of the fixed cells with water, the plates were dried at room temperature. The cells were stained by adding 100 microL/measuring point of a 0.1% crystal violet solution (pH 3.0). After three washing cycles of the stained cells with water, the plates were dried at room temperature. The dye was dissolved by adding 100 microL/measuring point of a 10% acetic acid solution. The extinction was determined by photometry at a wavelength of 595 nm. The change of cell number, in percent, was calculated by normalization of the measured values to the extinction values of the zero-point plate (=0%) and the extinction of the untreated (0 μM) cells (=100%). The IC50 values (inhibitory concentration at 50% of maximal effect) were determined by means of a 4 parameter fit.

[2] = target: CDK12/CyclinK (Homo sapiens (Human), UniProt Q9NYV4); test: CDK12/CycK high ATP kinase assay (TR-FRET); assay type: biochemical; settings: for IC50: 2 mM ATP (high ATP), median, read-out: CDK12/CyclinK, 2 mM ATP (high ATP), IC50 - [mol/l] (median); for (IC50 CDK12 high ATP) to (Degradation DC50 CDK12) ratio: IC50 CDK12 at 2 mM ATP divided by CDK12 degradation DC50 (IF, CAL-120)
CDK12/CyclinK, sequence (Q9NYV4 other isoform, or with tags, fused parts or gaps): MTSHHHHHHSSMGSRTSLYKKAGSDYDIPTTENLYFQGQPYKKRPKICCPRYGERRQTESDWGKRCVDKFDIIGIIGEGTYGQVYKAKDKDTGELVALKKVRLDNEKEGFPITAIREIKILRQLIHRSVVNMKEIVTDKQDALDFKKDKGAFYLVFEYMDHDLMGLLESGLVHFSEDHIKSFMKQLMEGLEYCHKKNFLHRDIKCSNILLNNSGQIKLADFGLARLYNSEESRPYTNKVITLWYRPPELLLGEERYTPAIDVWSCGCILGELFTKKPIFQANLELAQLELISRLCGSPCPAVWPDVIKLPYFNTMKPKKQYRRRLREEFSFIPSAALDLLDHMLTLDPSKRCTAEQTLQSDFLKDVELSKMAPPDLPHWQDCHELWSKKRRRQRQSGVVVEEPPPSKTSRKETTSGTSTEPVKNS
CDK12/CyclinK, sequence (O75909 other isoform, or with tags, fused parts or gaps partner): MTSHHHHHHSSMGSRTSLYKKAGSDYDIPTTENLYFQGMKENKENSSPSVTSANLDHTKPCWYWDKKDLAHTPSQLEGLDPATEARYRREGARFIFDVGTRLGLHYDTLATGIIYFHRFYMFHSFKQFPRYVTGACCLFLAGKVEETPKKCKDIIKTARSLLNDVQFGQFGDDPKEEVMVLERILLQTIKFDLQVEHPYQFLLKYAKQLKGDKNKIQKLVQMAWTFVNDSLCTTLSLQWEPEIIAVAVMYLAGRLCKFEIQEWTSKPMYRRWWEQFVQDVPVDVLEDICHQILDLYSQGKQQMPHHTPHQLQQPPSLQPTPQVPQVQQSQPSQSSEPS
Method: In the context of the present invention, the term “IC50 CDK12 hATP” refers to the IC50 values obtained according to the assay described in this section (2.2) herein below, i.e. the IC50 values for the inhibition of CDK12 at high (2 mM) ATP.
CDK12/CycK-inhibitory activity of compounds of the present invention at 2 millimol/L adenosine-tri-phosphate (ATP) was quantified employing the TR-FRET (TR-FRET=Time Resolved Fluorescence Energy Transfer) based CDK12/CycK activity inhibition assay as described in the following paragraphs.
A complex of human recombinant CDK12 and human recombinant CycK (both N-terminally His-tagged, expression and purification as described above) was used as enzyme. As substrate for the kinase reaction biotinylated peptide biotin-Ahx-KFELLPTPPLSPSRRSGL (C-terminus in amid form) was used which can be purchased e.g. form the company Biosyntan (Berlin-Buch, Germany).
For the assay 50 nanoL of a 100 fold concentrated solution of the test compound in DMSO was pipetted into either a black low volume 384 well microtiter plate or a black 1536 well microtiter plate (both Greiner Bio-One, Frickenhausen, Germany), 2 microL of a solution of CDK12/CycK in aqueous assay buffer [25 millimol/L HEPES pH 7.5, 20 millimol/L MgCl2, 5 millimol/L β-glycerophosphate, 2 millimol/L EGTA, 1.0 millimol/L dithiothreitol, 0.01% (v/v) Nonidet-P40 (Sigma), 0.01% (w/v) bovine serum albumin] were added and the mixture was incubated for 15 min at 22° C. to allow pre-binding of the test compounds to the enzyme before the start of the kinase reaction. Then the kinase reaction was started by the addition of 3 microL of a solution ATP (3.33 millimol/L=>final conc. in the 5 microL assay volume is 2 millimol/L) and substrate (1.67 micromol/L=>final conc. in the 5 microL assay volume is 1 micromol/L) in assay buffer and the resulting mixture was incubated for a reaction time of 60 min at 22° C. The concentration of CDK12/CycK was adjusted depending of the activity of the enzyme lot and was chosen appropriate to have the assay in the linear range, typical concentrations were about 0.75 nanomol/L. The reaction was stopped by the addition of 3 microL of a solution of TR-FRET detection reagents (125 nanomol/L streptavidine-XL665 [Cisbio Bioassays, Codolet, France] and 0.67 nanomol/L anti-Phospho-c-Myc (Ser 62) (E1J4K)-antibody from Cell Signalling [#13748] and 2 nanomol/L LANCE EU-W1024 labeled anti-rabbit IgG antibody [Perkin-Elmer, product no. 0083]) in an aqueous EDTA-solution (133 millimol/L EDTA, 0.27% (w/v) bovine serum albumin in 66.7 millimol/L HEPES pH 7.5).
The resulting mixture was incubated 1 h at 22° C. to allow the formation of complex between the phosphorylated biotinylated peptide and the detection reagents. Subsequently the amount of phosphorylated substrate was evaluated by measurement of the resonance energy transfer from the Eu-chelate to the streptavidine-XL. Therefore, the fluorescence emissions at 620 nm and 665 nm after excitation at 350 nm was measured in a TR-FRET reader, e.g. a Pherastar FS (BMG Labtechnologies, Offenburg, Germany) or a Viewlux (Perkin-Elmer). The ratio of the emissions at 665 nm and at […] was taken as the measure for the amount of phosphorylated substrate. The data were normalised (enzyme reaction without inhibitor=0% inhibition, all other assay components but no enzyme=100% inhibition).

[3] = test system: MDA-MB-231-CDK12d-res; test: Proliferation assay CDK12 degrader resistant MDA-MB-231; assay type: cell-based, human; settings: for IC50: Homo sapiens, 96 h, CDK12 degrader resistant MDA-MB-231 cells, 4 days, median, read-out: Prolif-MDA MB-231-CDK12d-res, IC50 - [mol/] (median); for Ratio (Prolif-MDA MB-231-CDK12d-res IC50 / Prolif-MDA MB-231 IC50): resistant versus parental MDA-MB-231 cells
Source text: as §1, §2

SMILES	IC50 [2] [nM]	(IC50 CDK12 high ATP) to (Degradation DC50 CDK12) ratio [2]	IC50 [3] [nM]	IC50 [1] [nM]	Ratio (Prolif-CAL-120-CDK12d-res IC50 / Prolif-CAL-120 IC50) [1]	Ratio (Prolif-MDA MB-231-CDK12d-res IC50 / Prolif-MDA MB-231 IC50) [3]
FC(F)(F)Oc1ccc(-c2cnc(CNc3nc(N4CCOCC4)nn4c(C(F)(F)F)cnc34)[nH]2)cc1 [Example 8, 2-(morpholin-4-yl)-N-({5-[4-(trifluoromethoxy)phenyl]-1H-imidazol-2-yl}methyl)-7-(trifluoromethyl)imidazo[2,1-f][1,2,4]triazin-4-amine]	8.34	9.34E−03	178	173	1.9	1.6
FC(F)(F)c1ccc(-c2cnc(CNc3nc(N4CCOCC4)nc4c(C(F)(F)F)cnn34)[nH]2)cc1 [Example 9, 2-(morpholin-4-yl)-8-(trifluoromethyl)-N-({5-[4-(trifluoromethyl)phenyl]-1H-imidazol-2-yl}methyl)pyrazolo[1,5-a][1,3,5]triazin-4-amine]	9.21	9.69E−03	150	105	1.0	0.8
FC(F)(F)Oc1ccc(-c2cnc(CNc3nc(N4CCOCC4)nc4c(C(F)(F)F)cnn34)[nH]2)cc1 [Example 10, 2-(morpholin-4-yl)-N-({5-[4-(trifluoromethoxy)phenyl]-1H-imidazol-2-yl}methyl)-8-(trifluoromethyl)pyrazolo[1,5-a][1,3,5]triazin-4-amine]	7.59	<7.59E−3	156	139	2.0	1.3
FC(F)(F)c1ccc(-c2cnc(CNc3nc(N4CCOCC4)nn4c(C(F)(F)F)cnc34)[nH]2)cn1 [Example 12, 2-(morpholin-4-yl)-7-(trifluoromethyl)-N-({5-[6-(trifluoromethyl)pyridin-3-yl]-1H-imidazol-2-yl}methyl)imidazo[2,1-f][1,2,4]triazin-4-amine]	3.09	<3.09E−3	31	22.1	1.5	1.4

The next lines start with results.

IC50 [2] [nM]	(IC50 CDK12 high ATP) to (Degradation DC50 CDK12) ratio [2]	IC50 [3] [nM]	SMILES	IC50 [1] [nM]	Ratio (Prolif-CAL-120-CDK12d-res IC50 / Prolif-CAL-120 IC50) [1]	Ratio (Prolif-MDA MB-231-CDK12d-res IC50 / Prolif-MDA MB-231 IC50) [3]
4.14	–	103	FC(F)(F)Oc1ccc(-c2nnc(CNc3nc(N4CCOCC4)nn4c(C(F)(F)F)cnc34)[nH]2)cn1 [Example 19, 2-(morpholin-4-yl)-N-({5-[6-(trifluoromethoxy)pyridin-3-yl]-4H-1,2,4-triazol-3-yl}methyl)-7-(trifluoromethyl)imidazo[2,1-f][1,2,4]triazin-4-amine]	97.1	1.5	2.7
11.9	<0.01	155	FC(F)(F)c1ccc(-c2nnc(CNc3nc(N4CCOCC4)nn4c(C(F)(F)F)cnc34)[nH]2)cn1 [Example 20, 2-(morpholin-4-yl)-7-(trifluoromethyl)-N-({5-[6-(trifluoromethyl)pyridin-3-yl]-4H-1,2,4-triazol-3-yl}methyl)imidazo[2,1-f][1,2,4]triazin-4-amine]	118	1.4	2.9
